ChEMBL document CHEMBL2396606, “Discovery of novel HCV inhibitors: synthesis and biological activity of 6-(indol-2-yl)pyridine-3-sulfonamides targeting hepatitis C virus NS4B” (Bioorg Med Chem Lett, 2013)

How the values were obtained:
Format in all cases: ADME, organism-based
[1] = Cmax in Sprague-Dawley rat at 10 mg/kg, po; parameters: dose 10 mg/kg, route oral; conditions: in vivo
[2] = AUC (0 to 6 hrs) in Sprague-Dawley rat at 10 mg/kg, po; parameters: time < 6 hr, dose 10 mg/kg, route oral; conditions: plasma
[3] = Tmax in Sprague-Dawley rat at 10 mg/kg, po; parameters: dose 10 mg/kg, route oral; conditions: in vivo
[4] = AUC (0 to infinity) in Sprague-Dawley rat at 5 mg/kg, iv; parameters: time infinity, dose 5 mg/kg, route intravenous; conditions: plasma
[5] = Oral bioavailability in Sprague-Dawley rat at 10 mg/kg; conditions: in vivo
[6] = AUC (0 to infinity) in Sprague-Dawley rat at 10 mg/kg, po; parameters: time infinity, dose 10 mg/kg, route oral; conditions: plasma
[7] = Volume of distribution at steady state in Sprague-Dawley rat at 10 mg/kg, po and 5 mg/kg, iv; conditions: in vivo, read-out: Vdss

Compound `CC(C)NS(=O)(=O)c1ccc(-c2c(C#N)c3ccc(OC(F)F)cc3n2C2CCC2)nc1` has a Cmax [1] of 53 ng/mL, an AUC(0-t) at 6 h [2] of 0.579 µM·h and a Tmax [3] of 2 h.

`N#Cc1c(-c2ccc(S(=O)(=O)NC(CF)CF)cn2)n(C2CCC2)c2cc(OC(F)F)ccc12` showed a Cmax [1] of 348 ng/mL, an AUC(0-inf) [4] of 13 µM·h and an AUC(0-t) at 6 h [2] of 3.42 µM·h. It also gave a bioavailability [5] of 62%, an AUC(0-inf) [6] of 16 µM·h and a Tmax [3] of 3 h. It also gave a Vd [7] of 4.7 L/kg.

In the case of `N#Cc1c(-c2ccc(S(=O)(=O)NC(CF)CF)cn2)n(C2CCC2)c2cc(C3CC3)ccc12`, the Cmax [1] was 759 ng/mL, the AUC(0-t) at 6 h [2] was 6.2 µM·h and the Tmax [3] was 2 h.

With `CC(C)NS(=O)(=O)c1ccc(-c2c(C#N)c3ccc(C4CC4)cc3n2C2CCC2)nc1` the Cmax [1] was 87 ng/mL, the AUC(0-t) at 6 h [2] was 0.964 µM·h and the Tmax [3] was 2 h.
